Where a name gives a salt, the structure may show the parent alone.
Tests used:
[1] = molecular target: T1, Alpha-1B adrenergic receptor (Homo sapiens, UniProt P35368)
T1 sequence (P35368 whole entry): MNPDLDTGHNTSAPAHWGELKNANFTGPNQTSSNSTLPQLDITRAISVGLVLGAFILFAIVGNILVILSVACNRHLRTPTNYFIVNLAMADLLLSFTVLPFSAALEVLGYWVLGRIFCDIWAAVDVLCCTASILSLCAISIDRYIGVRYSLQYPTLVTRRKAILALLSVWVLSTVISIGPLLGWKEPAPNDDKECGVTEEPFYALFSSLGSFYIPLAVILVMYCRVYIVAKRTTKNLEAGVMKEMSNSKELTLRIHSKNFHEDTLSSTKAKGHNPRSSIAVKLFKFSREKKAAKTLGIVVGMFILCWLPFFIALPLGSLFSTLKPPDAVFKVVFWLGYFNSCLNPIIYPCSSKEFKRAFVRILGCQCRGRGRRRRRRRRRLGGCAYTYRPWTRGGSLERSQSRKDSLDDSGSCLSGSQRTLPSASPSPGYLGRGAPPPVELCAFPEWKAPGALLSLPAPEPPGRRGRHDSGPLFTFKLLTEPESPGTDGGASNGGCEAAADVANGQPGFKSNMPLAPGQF

[2] = molecular target: T2, 5-hydroxytryptamine receptor 1F (Homo sapiens, UniProt P30939)
T2 sequence (P30939 whole entry): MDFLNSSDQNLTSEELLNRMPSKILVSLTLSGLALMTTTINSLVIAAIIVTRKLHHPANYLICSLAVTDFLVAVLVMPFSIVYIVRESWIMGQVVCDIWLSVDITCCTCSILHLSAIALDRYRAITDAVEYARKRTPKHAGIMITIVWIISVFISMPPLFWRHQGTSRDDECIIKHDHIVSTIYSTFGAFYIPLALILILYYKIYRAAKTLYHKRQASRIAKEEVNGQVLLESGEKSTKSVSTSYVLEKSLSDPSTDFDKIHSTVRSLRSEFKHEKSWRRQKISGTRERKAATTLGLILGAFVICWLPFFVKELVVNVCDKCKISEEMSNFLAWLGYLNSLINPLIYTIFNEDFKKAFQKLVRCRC

[3] = molecular target: 5-hydroxytryptamine receptor 1E (Homo sapiens, UniProt P28566)
Chain of 5-hydroxytryptamine receptor 1E (P28566 whole entry): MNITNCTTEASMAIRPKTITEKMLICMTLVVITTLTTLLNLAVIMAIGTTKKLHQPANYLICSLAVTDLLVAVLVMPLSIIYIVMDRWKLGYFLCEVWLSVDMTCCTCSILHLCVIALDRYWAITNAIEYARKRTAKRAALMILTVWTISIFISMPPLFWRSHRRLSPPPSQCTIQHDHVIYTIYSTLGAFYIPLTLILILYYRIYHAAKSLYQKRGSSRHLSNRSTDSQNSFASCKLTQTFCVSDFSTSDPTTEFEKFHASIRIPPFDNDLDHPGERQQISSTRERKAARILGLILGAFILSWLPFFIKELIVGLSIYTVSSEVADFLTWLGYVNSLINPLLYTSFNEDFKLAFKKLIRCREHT

[4] = molecular target: 5-hydroxytryptamine receptor 4 (Homo sapiens, UniProt Q13639)
Chain of 5-hydroxytryptamine receptor 4 (Q13639 whole entry): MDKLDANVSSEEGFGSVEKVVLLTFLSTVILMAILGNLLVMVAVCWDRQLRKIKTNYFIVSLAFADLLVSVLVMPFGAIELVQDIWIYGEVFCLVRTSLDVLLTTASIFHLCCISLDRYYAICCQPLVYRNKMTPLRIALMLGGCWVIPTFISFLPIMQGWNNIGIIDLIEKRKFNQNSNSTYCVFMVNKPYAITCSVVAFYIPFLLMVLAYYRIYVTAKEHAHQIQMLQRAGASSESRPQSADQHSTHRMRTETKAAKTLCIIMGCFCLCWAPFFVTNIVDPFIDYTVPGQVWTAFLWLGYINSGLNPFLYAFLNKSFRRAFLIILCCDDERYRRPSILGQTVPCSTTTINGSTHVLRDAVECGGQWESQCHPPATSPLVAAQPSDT

[5] = molecular target: 5-hydroxytryptamine receptor 2B (Homo sapiens, UniProt P41595)
Chain of 5-hydroxytryptamine receptor 2B (P41595 whole entry): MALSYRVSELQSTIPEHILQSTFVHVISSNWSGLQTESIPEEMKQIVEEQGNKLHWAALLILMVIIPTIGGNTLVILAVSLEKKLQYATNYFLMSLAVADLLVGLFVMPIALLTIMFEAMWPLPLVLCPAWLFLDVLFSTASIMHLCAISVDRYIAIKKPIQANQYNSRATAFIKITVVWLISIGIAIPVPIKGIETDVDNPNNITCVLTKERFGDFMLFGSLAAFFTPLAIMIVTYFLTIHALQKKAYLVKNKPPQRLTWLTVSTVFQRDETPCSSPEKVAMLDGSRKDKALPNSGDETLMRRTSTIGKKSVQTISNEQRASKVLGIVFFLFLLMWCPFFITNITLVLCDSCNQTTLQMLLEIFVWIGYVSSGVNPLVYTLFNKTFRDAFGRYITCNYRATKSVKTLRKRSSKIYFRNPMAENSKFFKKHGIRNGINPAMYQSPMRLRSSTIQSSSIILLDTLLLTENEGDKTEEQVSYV

[6] = molecular target: T3, 5-hydroxytryptamine receptor 2C (Homo sapiens, UniProt P28335)
T3 sequence (P28335 whole entry): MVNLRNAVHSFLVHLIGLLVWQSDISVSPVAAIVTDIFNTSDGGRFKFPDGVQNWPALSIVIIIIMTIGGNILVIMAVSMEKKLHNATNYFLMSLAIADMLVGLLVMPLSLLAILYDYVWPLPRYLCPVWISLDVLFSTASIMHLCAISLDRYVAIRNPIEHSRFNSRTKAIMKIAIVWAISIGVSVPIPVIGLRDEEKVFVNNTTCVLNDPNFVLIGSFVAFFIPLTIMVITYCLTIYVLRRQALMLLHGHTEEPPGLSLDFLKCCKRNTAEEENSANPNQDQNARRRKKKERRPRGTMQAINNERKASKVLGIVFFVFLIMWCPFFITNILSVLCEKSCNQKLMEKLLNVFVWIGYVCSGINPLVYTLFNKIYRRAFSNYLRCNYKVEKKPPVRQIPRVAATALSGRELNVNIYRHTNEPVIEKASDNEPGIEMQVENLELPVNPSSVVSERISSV

[7] = molecular target: 5-hydroxytryptamine receptor 6 (Homo sapiens, UniProt P50406)
Chain of 5-hydroxytryptamine receptor 6 (P50406 whole entry): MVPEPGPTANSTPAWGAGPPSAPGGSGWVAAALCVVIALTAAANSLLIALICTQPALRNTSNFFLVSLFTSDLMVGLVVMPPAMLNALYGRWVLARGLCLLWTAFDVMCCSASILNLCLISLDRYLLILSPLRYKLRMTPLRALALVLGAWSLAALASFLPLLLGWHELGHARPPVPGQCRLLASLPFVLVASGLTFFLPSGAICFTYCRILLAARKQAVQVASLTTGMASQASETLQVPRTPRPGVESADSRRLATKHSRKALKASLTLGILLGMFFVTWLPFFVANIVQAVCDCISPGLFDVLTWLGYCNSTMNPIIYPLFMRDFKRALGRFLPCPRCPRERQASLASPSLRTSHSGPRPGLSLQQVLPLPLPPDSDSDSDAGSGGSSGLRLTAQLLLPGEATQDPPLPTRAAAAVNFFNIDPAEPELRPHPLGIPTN

Structure (SMILES) | Ki [1] [µM] | Ki [2] [µM] | Ki [3] [µM] | Ki [4] [µM] | Ki [5] [µM] | Ki [6] [µM] | Ki [7] [µM]
Cc1cccc(S(=O)(=O)N2CCC[C@@H]2CCN2CCC(C)CC2)c1 [(R)-4-Methyl-1-(2-(1-toluene-3-sulfonyl)-pyrrolidin-2-yl)-ethyl)-piperidine (Oxalate salt)] | – | > 10 | > 10 | > 10 | 2.51 | – | –
CC1CCN(CC[C@H]2CCCN2S(=O)(=O)c2ccc(Cl)c(Cl)c2)CC1 [(R)-1-(2-(1-(3,4-Dichloro-benzenesulfonyl)-pyrrolidin-2-yl)-ethyl)-4-methyl piperidine] | – | 3.16 | – | 3.16 | – | – | –
CC1CCN(CC[C@H]2CCCN2S(=O)(=O)c2cccc(Br)c2)CC1 [(R)-1-(2-(1-(3-bromo-benzenesulfonyl)-pyrrolidin-2-yl)-ethyl)-4-methyl piperidine] | – | 5.01 | 2.51 | 6.31 | 1.58 | 5.01 | –
COc1cccc(S(=O)(=O)N2CCC[C@@H]2CCN2CCC(C)CC2)c1 [(R)-1-(2-(1-(3-methoxy-benzenesulfonyl)-pyrrolidin-2-yl)-ethyl-4-methylpiperidine] | – | – | – | – | – | – | > 10

Results, then the compound that gave them:

Ki [1] [µM] | Ki [2] [µM] | Ki [3] [µM] | Ki [4] [µM] | Ki [5] [µM] | Ki [6] [µM] | Ki [7] [µM] | Structure (SMILES)
> 10 | 3.16 | – | – | – | – | – | CC1CCN(CC[C@H]2CCCN2S(=O)(=O)c2cccc(O)c2)CC1 [(R)-3-(2-(2-(4-methylpiperidin-1-yl)ethyl)pyrrolidine-1-sulfonyl)phenol]
– | > 10 | > 10 | – | – | – | – | CC1CCN(CC[C@H]2CCCN2S(=O)(=O)c2cccc3ccccc23)CC1 [(R)-4-Methyl-1-(2-(1-(naphthalene-1-sulfonyl)-pyrrolidin-2-yl)-ethyl)-piperidine(10)]
